Reference: patent US20150148311A1, “NON-SYSTEMIC TGR5 AGONISTS” (Ardelyx, Inc., priority 2011, published 2015)

What was measured:
total (t)PYY = assay: Time course of in vivo induction of total PYY; conditions: C57BL/6 male mice
Procedure: (§1) C57BL/6 male mice on regular chow received an oral dose of vehicle (2% DMSO in 0.4% hydroxypropyl methylcellulose) or examples 176 or 178 (at 30 mg/kg). Food was removed prior to/or at the time of dosing: 4, 8, 12, and 16 h groups fasted for 7, 8, 12 and 16 h, respectively. At the appropriate time after dosing, mice were heavily anesthetized with isoflurane, and blood was collected from the left ventricle of the heart and processed to plasma as described in Example 293 for measurement of total (t) GLP-1 and, additionally, total (t)PYY (N45ZA-1; Meso Scales Discovery, Gaithersburg Md.).

CD-1 female mice = assay: In vivo measurement of CCK-mediated gallbladder emptying (egg yolk); conditions: fasted ~16 h, oral 30 mg/kg (devazepide 1 mg/kg) 1 h before egg yolk, gallbladder weighed 15 min later (FIG. 1)
Procedure: CD-1 female mice on regular chow had food removed (to prevent gallbladder emptying) in the late evening. The next morning (˜16 h later), groups of mice were dosed orally with vehicle (10% hydroxypropyl-β-cyclodextrin; 2 groups), devazepide in water (1 mg/kg; […]. One hour later, 1 group of vehicle-treated mice was dosed orally with saline, and all other groups were dosed orally with lyophilized egg yolk [0.75 mL; 30% (wt/vol) reconstituted in saline for induction of CCK-mediated gallbladder emptying]. Fifteen minutes later, mice were heavily anesthetized with isoflurane, the peritoneal cavity was opened and gallbladders (with contents) were carefully excised and weighed.

C57BL/6 male mice = assay: In vivo gallbladder measurement (weight) 16 hours post-dose; conditions: 30 mg/kg
human IBAT = molecular target: T1, human IBAT (Homo sapiens, UniProt Q12908); assay: IBAT counter screen, [3H]taurocholic acid uptake in IBAT-transfected HEK293 cells; type: cell-based; conditions: read-out: pEC50 human IBAT (converted)
T1 construct: expressed in transfected cells; host or cells: HEK293
T1 sequence (Q12908 1-348): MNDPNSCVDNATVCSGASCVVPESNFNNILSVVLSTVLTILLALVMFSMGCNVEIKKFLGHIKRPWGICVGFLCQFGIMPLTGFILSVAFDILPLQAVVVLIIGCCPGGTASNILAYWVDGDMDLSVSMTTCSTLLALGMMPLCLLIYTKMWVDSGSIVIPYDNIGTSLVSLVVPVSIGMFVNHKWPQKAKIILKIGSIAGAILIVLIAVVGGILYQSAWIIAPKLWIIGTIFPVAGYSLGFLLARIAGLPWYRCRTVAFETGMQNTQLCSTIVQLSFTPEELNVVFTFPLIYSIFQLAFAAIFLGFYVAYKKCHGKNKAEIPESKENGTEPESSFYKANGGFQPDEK
Procedure: Following a 40-min incubation, the solution was removed, and the cells were washed twice with uptake buffer. Cells were lysed by addition of 20 μL 0.1% Tween 80 followed by 100 μL scintillation fluid and counted using a TopCount (Perkin Elmer).

human FXR = molecular target: T2, human FXR (Homo sapiens, UniProt Q96RI1); assay: FXR counter screen, cell-based luciferase reporter assay; conditions: cells expressing human FXR and FXR-responsive luciferase reporter, 0.4 to 50 μM test compound; read-out: pEC50 human FXR (converted)
T2 construct: purchased Indigo Biosciences (State College, Pa.)
T2 sequence (Q96RI1 1-486): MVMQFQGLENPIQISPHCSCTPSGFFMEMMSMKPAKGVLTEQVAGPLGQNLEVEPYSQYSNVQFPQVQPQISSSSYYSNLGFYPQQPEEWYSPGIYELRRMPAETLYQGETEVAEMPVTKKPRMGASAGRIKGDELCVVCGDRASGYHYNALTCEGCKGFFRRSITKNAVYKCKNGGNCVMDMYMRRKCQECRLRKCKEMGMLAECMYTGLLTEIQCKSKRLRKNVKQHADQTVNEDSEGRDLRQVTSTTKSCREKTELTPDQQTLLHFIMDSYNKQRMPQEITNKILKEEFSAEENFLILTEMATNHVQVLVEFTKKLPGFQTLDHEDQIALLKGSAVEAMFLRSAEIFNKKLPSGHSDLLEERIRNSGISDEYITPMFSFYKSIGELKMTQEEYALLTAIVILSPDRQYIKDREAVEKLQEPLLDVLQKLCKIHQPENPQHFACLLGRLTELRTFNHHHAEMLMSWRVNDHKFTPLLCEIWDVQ
Procedure: FXR: The ability of test compounds to activate FXR (NR1H4) was measured using a cell-based assay kit obtained from Indigo Biosciences (State College, Pa.).

[1] = Compound plasma concentration, LC-MS/MS, 8 h post dose; type: in vivo; conditions: 30 mg/kg
Method in brief: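 Blood was taken from the left ventricle 8 h after dosing, under isoflurane anesthesia, into EDTA tubes containing aprotinin and DPPIV inhibitor. Plasma was protein-precipitated with acetonitrile containing an internal standard, and supernatants were analyzed by LC-MS/MS against a plasma standard curve.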

total (t) GLP-1 = assay: Time course of in vivo induction of total GLP-1; conditions: C57BL/6 male mice, 30 mg/kg oral, 4, 8, 12 and 16 h
Procedure: as §1

[2] = Compound concentration in gall bladder, LC-MS/MS, 8 h post dose; type: in vivo; conditions: 30 mg/kg, mice below LLOQ / mice in group
Method in brief: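 Gallbladder with its contents excised from isoflurane-anesthetized mice 8 h after dosing and homogenized in water. Homogenate diluted 1:5, precipitated with acetonitrile and measured by LC-MS/MS. Levels interpolated from per-compound standard curves in vehicle-treated gallbladder homogenate.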

mice = conditions: i.p. injection, in 30 minutes, literature (Li et al. 2011); cited from earlier work

Compound | induction of tPYY levels following a single oral dose (total (t)PYY; 30 mg/kg oral, 4, 8, 12 and 16 h) | times after dosing at which tPYY levels were significantly elevated (total (t)PYY; 30 mg/kg oral, tested 4, 8, 12 and 16 h (FIG. 2, panel B)) | inhibition of CCK-mediated gallbladder emptying (CD-1 female mice) | effect on gallbladder weight/body weight (C57BL/6 male mice) | EC50 (human IBAT) | EC50 (human FXR) | Number of Mice with Plasma Concentration < LLOQ ([1]; mice below LLOQ / mice in group) | concentration at 8 h ([1]; male, C57BL/6, mouse, mice, plasma, read-out: Mean Example Plasma Concentration) | induction of tGLP-1 levels following a single oral dose (total (t) GLP-1) | Number of Mice with Gallbladder Concentration < LLOQ [2] | increase of gallbladder volume (mice)
O=C(CCCCc1cc(Cl)c(CN2CSC[C@H]2C(=O)N2CCN(C3CC3)c3ccccc32)cc1Cl)NC[C@H](O)[C@@H](O)[C@H](O)[C@H](O)CO [Example 178, 5-(2,5-dichloro-4-(((R)-4-(4-cyclopropyl-1,2,3,4-tetrahydroquinoxaline-1-carbonyl)thiazolidin-3-yl)methyl)phenyl)-N-((2S,3R,4R,5R)-2,3,4,5,6-pentahydroxyhexyl)pentanamide] | sustained induction | 8 h | did not inhibit | no significant effect | > 25.1 µM | > 50.1 µM | 8/8 | < 1 ng/mL | sustained induction | 0/8 | 
CC[C@H]1[C@@H](O)[C@@H]2[C@H](C[C@H](O)[C@]3(C)[C@@H]([C@H](C)C[C@H](C)C(=O)O)CC[C@@H]23)[C@@]2(C)CC[C@@H](O)C[C@@H]12 [INT-777] |  |  |  |  |  |  |  |  |  |  | approximately two-fold
